Activity calls are given as the source filed them. The calls are words filed in the database; no cut-off is given here.
What was measured:
[1] = molecular target: T1, Sphingosine 1-phosphate receptor 1 (Homo sapiens, UniProt P21453); assay: Agonist activity at human S1P1 receptor expressed in CHO-K1 EDG1 cells expressing beta-arrestin 2 after 105 mins by chemi-luminescence assay; format: functional, cell-based
[2] = molecular target: T2, Sphingosine 1-phosphate receptor 3 (Homo sapiens, UniProt Q99500); assay: Agonist activity at human S1P3 receptor expressed in RBL cells assessed as [35S]GTPgammaS binding after 3 hrs by radiometric assay; format: functional, cell-based
[3] = Chromatographic hydrophobicity index, log D of the compound at pH 7.4; format: physicochemical; conditions: buffer
[4] = Dissociation constant, pKa of the compound; format: physicochemical
hERG (KCNH2) = hERG (KCNH2) (Homo sapiens, UniProt Q12809); assay: Inhibition of human ERG at 30 uM
[5] = Blood clearance in CD rat at 1 mg/kg, iv; format: ADME, organism-based; set-up: dose 1 mg/kg, route intravenous
[6] = Volume of distribution at steady state in CD rat at 1 mg/kg, iv; format: ADME, organism-based; set-up: dose 1 mg/kg, route intravenous; conditions: in vivo, read-out: Vdss
[7] = Half life in CD rat at 1 mg/kg, iv; format: ADME, organism-based; set-up: dose 1 mg/kg, route intravenous; conditions: in vivo
Rattus norvegicus [8] = assay: Lymphopenic activity in Lewis rat assessed as reduction in blood lymphocyte counts at 1 mg/kg, po; format: functional; set-up: scale not given: the % may be the effect or the level left
[9] = Bioavailability in CD rat at 1 mg/kg, […]; format: ADME, organism-based; conditions: in vivo
[10] = molecular target: Voltage-gated inwardly rectifying potassium channel KCNH2 (Homo sapiens, UniProt Q12809)
[11] = molecular target: T3, Sphingosine 1-phosphate receptor 4 (Homo sapiens) (UniProt O95977); assay: Agonist activity at human S1P4 expressed in CHO-K1 aequorin cells assessed as calcium accumulation of by luminescence assay in presence of cofactor coelenterazine relative to control; format: functional, cell-based
T3 sequence (whole entry): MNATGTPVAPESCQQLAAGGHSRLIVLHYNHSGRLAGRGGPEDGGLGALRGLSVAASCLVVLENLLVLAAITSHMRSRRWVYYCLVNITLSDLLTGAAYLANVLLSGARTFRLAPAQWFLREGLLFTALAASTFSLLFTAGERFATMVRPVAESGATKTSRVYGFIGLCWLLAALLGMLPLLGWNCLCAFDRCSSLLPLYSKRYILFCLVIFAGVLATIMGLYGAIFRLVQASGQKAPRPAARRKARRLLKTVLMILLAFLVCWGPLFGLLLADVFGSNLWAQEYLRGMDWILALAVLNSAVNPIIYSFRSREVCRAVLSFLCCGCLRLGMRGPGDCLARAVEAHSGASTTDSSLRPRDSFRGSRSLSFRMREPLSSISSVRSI

[12] = molecular target: T4, Sphingosine 1-phosphate receptor 4 (Homo sapiens, UniProt O95977); assay: Agonist activity at human S1P4 expressed in CHO-K1 aequorin cells assessed as calcium accumulation of by luminescence assay in presence of cofactor coelenterazine; format: functional, cell-based
T4 sequence (O95977 whole entry): T3 sequence (whole entry)

[13] = molecular target: T1, Sphingosine 1-phosphate receptor 1; assay: Agonist activity at human S1P1 receptor expressed in CHO-K1 EDG1 cells expressing beta-arrestin 2 after 105 mins by chemi-luminescence assay relative to control; format: functional, cell-based
[14] = molecular target: T2, Sphingosine 1-phosphate receptor 3; assay: Agonist activity at human S1P3 receptor expressed in RBL cells assessed as [35S]GTPgammaS binding after 3 hrs by radiometric assay relative to control; format: functional, cell-based
[15] = molecular target: T5, Sphingosine 1-phosphate receptor 5 (Homo sapiens, UniProt Q9H228); assay: Agonist activity at human S1P5 receptor expressed in CHO-K1 aequorin cells assessed as calcium accumulation of by luminescence assay in presence of cofactor coelenterazine relative to control; format: functional, cell-based
[16] = molecular target: T5, Sphingosine 1-phosphate receptor 5; assay: Agonist activity at human S1P5 receptor expressed in CHO-K1 aequorin cells assessed as calcium accumulation of by luminescence assay in presence of cofactor coelenterazine; format: functional, cell-based
[17] = Chromatographic hydrophobicity index, log D of the compound at pH 2.0; format: physicochemical; conditions: buffer
[18] = Chromatographic hydrophobicity index, log D of the compound at pH 10.5; format: physicochemical; conditions: buffer
[19] = Oral bioavailability in CD rat at 3 mg/kg; format: ADME, organism-based; conditions: in vivo
[20] = Oral bioavailability in CD rat at 1 mg/kg; format: ADME, organism-based; conditions: in vivo
Rattus norvegicus [21] = assay: Lymphopenic activity in Lewis rat assessed as reduction in blood lymphocyte counts at 0.3 mg/kg, po; format: functional, organism-based; set-up: dose 0.3 mg/kg
[22] = Solubility of the compound in fed state simulated intestinal fluid; format: physicochemical; conditions: simulated gi fluid
Hepatocyte [23] = assay: Intrinsic clearance in rat hepatocytes; format: ADME, cell-based, Liver
[24] = Intrinsic clearance in dog hepatocytes; format: ADME, cell-based, Canis lupus familiaris, Liver, Hepatocyte
Hepatocyte [25] = assay: Intrinsic clearance in mouse hepatocytes; format: ADME, cell-based, Liver
[26] = Intrinsic clearance in cynomolgus monkey hepatocytes; format: ADME, cell-based, Macaca fascicularis, Liver, Hepatocyte
Hepatocyte [27] = assay: Intrinsic clearance in human hepatocytes; format: ADME, cell-based, Liver
Cytochrome P450 3A4 [28] = molecular target: T6, Cytochrome P450 3A4 (Homo sapiens, UniProt P08684); assay: Inhibition of CYP3A4 using vivid green as substrate; format: ADME
[29] = Ratio of drug level in brain to blood in CD rat at 0.8 mg/kg/hr, iv measured up to 7 hrs; format: ADME, organism-based; set-up: route intravenous
[30] = Blood clearance in Beagle dog at 1 mg/kg, iv; format: ADME, organism-based, Canis lupus familiaris; set-up: dose 1 mg/kg, route intravenous
[31] = Volume of distribution at steady state in Beagle dog at 1 mg/kg, iv; format: ADME, organism-based, Canis lupus familiaris; set-up: dose 1 mg/kg, route intravenous; conditions: in vivo, read-out: Vdss
[32] = Half life in Beagle dog at 1 mg/kg, iv; format: ADME, organism-based, Canis lupus familiaris; set-up: dose 1 mg/kg, route intravenous; conditions: in vivo
[33] = Oral bioavailability in Beagle dog at 1 mg/kg; format: ADME, organism-based, Canis lupus familiaris; conditions: in vivo
Cytochrome P450 2C9 = Cytochrome P450 2C9 (Homo sapiens, UniProt P11712); assay: Inhibition of CYP2C9; format: ADME
Cytochrome P450 2C19 = Cytochrome P450 2C19 (Homo sapiens, UniProt P33261); assay: Inhibition of CYP2C19; format: ADME
Cytochrome P450 2D6 = Cytochrome P450 2D6 (Homo sapiens, UniProt P10635); assay: Inhibition of CYP2D6; format: ADME
Cytochrome P450 3A4 [34] = molecular target: T6, Cytochrome P450 3A4; assay: Inhibition of CYP3A4 using vivid red as substrate; format: ADME
Plasma = assay: Fraction unbound in CD rat plasma; format: ADME, cell-free
[35] = Plasma protein binding in CD rat at 1 mg/kg, iv; format: ADME, organism-based; set-up: dose 1 mg/kg, route intravenous; conditions: read-out: PPB

Voltage-gated inwardly rectifying potassium channel KCNH2, sequence (Q12809 whole entry): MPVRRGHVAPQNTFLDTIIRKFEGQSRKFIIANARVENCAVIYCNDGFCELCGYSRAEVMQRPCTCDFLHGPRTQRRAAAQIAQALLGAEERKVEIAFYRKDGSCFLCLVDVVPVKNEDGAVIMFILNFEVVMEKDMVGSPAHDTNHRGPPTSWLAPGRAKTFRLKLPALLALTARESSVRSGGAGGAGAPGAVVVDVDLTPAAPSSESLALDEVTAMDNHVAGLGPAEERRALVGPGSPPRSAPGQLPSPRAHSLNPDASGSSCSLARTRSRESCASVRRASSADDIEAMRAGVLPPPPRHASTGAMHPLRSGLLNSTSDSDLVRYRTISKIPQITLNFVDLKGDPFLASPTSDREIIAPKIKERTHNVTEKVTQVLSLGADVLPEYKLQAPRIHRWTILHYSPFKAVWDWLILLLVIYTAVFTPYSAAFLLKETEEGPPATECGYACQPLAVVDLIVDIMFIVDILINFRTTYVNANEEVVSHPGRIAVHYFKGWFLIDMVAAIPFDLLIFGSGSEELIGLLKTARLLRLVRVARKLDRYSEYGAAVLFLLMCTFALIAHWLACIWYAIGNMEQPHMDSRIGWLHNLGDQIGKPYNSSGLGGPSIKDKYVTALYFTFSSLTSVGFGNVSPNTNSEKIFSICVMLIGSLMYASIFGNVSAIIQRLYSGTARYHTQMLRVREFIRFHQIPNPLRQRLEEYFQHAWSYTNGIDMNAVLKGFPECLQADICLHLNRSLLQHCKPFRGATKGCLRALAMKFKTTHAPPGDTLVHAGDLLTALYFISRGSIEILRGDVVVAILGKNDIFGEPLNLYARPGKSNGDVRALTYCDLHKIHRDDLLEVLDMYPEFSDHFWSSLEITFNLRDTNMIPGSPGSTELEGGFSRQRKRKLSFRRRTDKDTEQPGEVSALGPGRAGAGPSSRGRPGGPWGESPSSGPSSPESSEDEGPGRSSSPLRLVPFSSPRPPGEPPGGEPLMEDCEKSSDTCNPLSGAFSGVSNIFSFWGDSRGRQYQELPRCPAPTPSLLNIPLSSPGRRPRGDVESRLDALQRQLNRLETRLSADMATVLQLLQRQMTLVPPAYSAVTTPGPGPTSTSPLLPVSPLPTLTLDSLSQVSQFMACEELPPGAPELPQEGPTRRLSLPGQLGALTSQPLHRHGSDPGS
T1 sequence (P21453 whole entry): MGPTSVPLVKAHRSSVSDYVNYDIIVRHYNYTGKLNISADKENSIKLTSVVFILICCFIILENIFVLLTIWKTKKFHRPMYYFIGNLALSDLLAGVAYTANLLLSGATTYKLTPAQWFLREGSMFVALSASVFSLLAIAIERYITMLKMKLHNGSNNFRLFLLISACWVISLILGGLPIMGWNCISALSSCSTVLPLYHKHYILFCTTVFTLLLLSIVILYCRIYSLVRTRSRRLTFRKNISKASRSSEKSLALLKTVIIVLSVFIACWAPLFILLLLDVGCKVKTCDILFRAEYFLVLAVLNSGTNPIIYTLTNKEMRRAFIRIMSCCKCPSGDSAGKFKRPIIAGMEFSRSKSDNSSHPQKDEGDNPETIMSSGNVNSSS
T2 sequence (Q99500 whole entry): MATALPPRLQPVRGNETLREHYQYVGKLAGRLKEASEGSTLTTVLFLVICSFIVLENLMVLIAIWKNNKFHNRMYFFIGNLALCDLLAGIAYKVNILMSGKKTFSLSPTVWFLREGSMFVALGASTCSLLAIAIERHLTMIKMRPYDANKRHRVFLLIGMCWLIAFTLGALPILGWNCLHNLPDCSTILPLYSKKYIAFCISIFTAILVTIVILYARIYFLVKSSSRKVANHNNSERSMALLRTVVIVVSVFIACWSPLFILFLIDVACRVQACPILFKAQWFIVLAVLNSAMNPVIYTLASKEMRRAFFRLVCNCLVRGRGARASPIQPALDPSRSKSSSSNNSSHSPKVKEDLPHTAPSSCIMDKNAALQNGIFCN
hERG (KCNH2), sequence (Q12809 whole entry): as the sequence (Q12809 whole entry) above
T5 sequence (Q9H228 whole entry): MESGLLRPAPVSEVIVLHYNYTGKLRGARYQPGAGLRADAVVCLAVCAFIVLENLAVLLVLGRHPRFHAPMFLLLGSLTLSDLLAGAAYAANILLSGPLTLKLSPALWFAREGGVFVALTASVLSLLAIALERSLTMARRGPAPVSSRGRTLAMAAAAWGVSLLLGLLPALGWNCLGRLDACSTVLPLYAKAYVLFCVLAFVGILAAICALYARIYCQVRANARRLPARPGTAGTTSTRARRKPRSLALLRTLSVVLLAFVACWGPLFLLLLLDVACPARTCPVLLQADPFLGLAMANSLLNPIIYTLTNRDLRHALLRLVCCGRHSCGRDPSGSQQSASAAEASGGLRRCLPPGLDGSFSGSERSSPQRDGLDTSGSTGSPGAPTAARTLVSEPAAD
T6 sequence (P08684 whole entry): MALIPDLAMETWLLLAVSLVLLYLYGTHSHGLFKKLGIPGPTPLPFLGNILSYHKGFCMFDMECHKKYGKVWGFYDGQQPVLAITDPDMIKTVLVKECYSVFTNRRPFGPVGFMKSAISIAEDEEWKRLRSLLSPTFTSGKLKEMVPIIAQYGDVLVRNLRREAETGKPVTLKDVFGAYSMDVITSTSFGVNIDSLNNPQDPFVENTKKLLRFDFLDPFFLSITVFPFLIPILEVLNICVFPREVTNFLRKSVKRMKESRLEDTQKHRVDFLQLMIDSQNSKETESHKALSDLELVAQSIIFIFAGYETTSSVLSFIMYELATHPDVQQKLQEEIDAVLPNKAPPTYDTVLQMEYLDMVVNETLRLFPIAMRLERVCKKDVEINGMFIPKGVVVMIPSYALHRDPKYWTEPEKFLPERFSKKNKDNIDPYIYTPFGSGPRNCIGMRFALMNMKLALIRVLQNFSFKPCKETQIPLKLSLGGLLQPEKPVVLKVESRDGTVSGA
Cytochrome P450 2C19, sequence (P33261 whole entry): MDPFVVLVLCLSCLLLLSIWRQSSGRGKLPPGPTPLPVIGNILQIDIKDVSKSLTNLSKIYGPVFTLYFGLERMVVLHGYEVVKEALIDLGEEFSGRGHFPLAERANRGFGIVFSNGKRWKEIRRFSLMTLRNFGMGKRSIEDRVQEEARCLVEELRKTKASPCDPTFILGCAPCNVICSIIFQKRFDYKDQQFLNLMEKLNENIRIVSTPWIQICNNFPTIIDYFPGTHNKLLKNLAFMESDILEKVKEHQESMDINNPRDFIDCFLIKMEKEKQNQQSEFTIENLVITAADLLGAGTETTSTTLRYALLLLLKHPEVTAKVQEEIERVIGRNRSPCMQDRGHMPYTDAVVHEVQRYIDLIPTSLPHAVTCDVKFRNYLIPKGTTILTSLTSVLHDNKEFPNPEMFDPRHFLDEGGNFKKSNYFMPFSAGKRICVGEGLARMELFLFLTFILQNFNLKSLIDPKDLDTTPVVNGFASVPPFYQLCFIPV
Cytochrome P450 2C9, sequence (P11712 whole entry): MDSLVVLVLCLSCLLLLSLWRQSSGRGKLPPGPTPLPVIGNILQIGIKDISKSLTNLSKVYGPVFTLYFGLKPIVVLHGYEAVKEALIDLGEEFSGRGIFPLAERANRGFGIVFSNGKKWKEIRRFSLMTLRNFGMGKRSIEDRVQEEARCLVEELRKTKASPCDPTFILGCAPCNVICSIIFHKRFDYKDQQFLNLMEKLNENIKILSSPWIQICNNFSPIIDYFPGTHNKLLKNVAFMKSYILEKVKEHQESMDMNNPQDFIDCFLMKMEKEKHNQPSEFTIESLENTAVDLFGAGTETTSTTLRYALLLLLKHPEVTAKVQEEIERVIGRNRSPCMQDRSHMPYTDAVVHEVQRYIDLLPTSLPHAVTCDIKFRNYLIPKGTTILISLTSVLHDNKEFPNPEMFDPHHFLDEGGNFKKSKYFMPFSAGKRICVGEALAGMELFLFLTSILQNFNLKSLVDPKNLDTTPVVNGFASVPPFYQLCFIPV

SMILES	EC50 [1] [µM]	EC50 [2] [µM]	chromatographic logD [3]	pKa [4]	inhibition at 30 µM (hERG (KCNH2)) [%]	clearance [5] [mL/min/kg]	Vd [6] [L/kg]	half-life [7] [h]	Activity (Rattus norvegicus [8]) [%]	IC50 [10] [µM]	chromatographic logD [17]	chromatographic logD [18]	bioavailability [19] [%]	other results
CC(C)Oc1ccc(-c2nc(-c3ccc4c(c3)CCN(C(CO)CO)CC4)no2)cc1C#N	0.02	15.8	2.74	7.81	59	21	7.6	5.3	88	17.8	–	–	–	bioavailability [9]: 68%
CCCCCCCCc1ccc(CC[C@](N)(CO)COP(=O)(O)O)cc1 [FTY720-P]	–	–	–	–	–	–	–	–	–	–	–	–	–	Emax [11]: 48%; EC50 [12]: 0.2 µM; Emax [13]: 99%; Emax [14]: 62%; Emax [15]: 7.2%
Cc1c(-c2noc(-c3ccc(OC(C)C)c(C#N)c3)n2)ccc2c1CCN(C(CO)CO)C2	0.00316	> 31.6	2.64	7.3	58	60	4.1	1	96	12.9	0.98	2.99	52	EC50 [16]: 0.02 µM; bioavailability [20]: 52%; Activity (Rattus norvegicus [21]): Active; solubility [22]: > 1 µg/mL; CL (Hepatocyte [23]): 3 mL/min/g; CL [24]: 30 mL/min/g; CL (Hepatocyte [25]): 1.3 mL/min/g; CL [26]: 1.3 mL/min/g; CL (Hepatocyte [27]): 2 mL/min/g; IC50 (Cytochrome P450 3A4 [28]): 8.4 µM; Kp at 7 h [29]: 1.87; clearance [30]: 29 mL/min/kg; Vd [31]: 7 L/kg; half-life [32]: 3 h; bioavailability [33]: 45%; IC50 (Cytochrome P450 2C9): 4.3 µM; IC50 (Cytochrome P450 2C19): > 50 µM; IC50 (Cytochrome P450 2D6): > 50 µM; IC50 (Cytochrome P450 3A4 [34]): 15.3 µM
CC(C)Oc1ccc(-c2nc(-c3cccc4c3OCCN(C(CO)CO)C4)no2)cc1C#N	0.02	> 31.6	2.41	6.03	–	14	3.3	3.5	60	–	–	–	–	–
CC(C)Oc1ncc(-c2nc(-c3ccc4c(c3)CCNCC4)no2)cc1C#N	0.02	> 31.6	2.65	9.69	–	20	9.7	6.3	–	3.16	1.34	3.73	70	Fu (Plasma): 0.25%; fraction unbound [35]: < 0.05

Source: ChEMBL document CHEMBL1833884, “Discovery of a brain-penetrant S1P₃-sparing direct agonist of the S1P₁ and S1P₅ receptors efficacious at low oral dose” (J Med Chem, 2011)
